The text below walks through data of patent US9266867B2, “Piperidinyl monocarboxylic acids as S1P1 receptor agonists” (BIOPROJET, priority 2011, dated 2016).

pEC50: −log10 of the molar value. Structures can show the parent of a compound that is named as a salt.

For the experiment, the target named is EDG-1 (Homo sapiens, UniProt P21453). Nature of the experiment: 35S-GTPγS binding assay, EDG1 (S1P1). The note with it: Table 1b; read-out: EDG1 EC50. Format: biochemical. Also on record: expressed in transfected cells. As to the method: a) 35S-GTPγS Binding Assay GTP-γ-^35S binding was performed using […]15 μg protein of cell membranes suspended in 50 mM tris-HCl pH 7.5 containing 10 mM MgCl2, 100 mM NaCl and 10 μM GDP. The radioligand was 0.025 nM [^35S] GTP-γ-S and non specific binding determined in the presence of 10 μM non-radioactive GTP-γ-S. […] The maximal stimulation elicited by S1P was taken as a reference to define full or partial agonism and calculate the intrinsic activity (i.a.) of compounds.
Chain of EDG-1 (P21453 whole entry): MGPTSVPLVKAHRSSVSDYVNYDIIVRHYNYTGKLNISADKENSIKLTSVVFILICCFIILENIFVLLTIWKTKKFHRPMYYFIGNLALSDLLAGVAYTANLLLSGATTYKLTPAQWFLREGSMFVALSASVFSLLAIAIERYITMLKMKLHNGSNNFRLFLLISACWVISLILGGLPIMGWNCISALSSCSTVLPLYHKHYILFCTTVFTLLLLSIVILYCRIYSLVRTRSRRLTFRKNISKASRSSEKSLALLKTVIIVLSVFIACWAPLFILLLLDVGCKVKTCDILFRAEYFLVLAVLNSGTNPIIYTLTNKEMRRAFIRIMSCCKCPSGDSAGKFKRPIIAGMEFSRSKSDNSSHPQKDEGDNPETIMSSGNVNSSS
As to `CC(C)Cc1ccc(-c2nc(-c3ccc(CN4CCC(Cc5ccncc5)(C(=O)O)CC4)cc3)no2)cc1Cl` [Example 43, 1-{4-[5-(3-Chloro-4-isobutyl-phenyl)-[1,2,4]-oxadiazol-3-yl]-benzyl}-4-pyridin-4-ylmethyl-piperidine-4-carboxylic acid tert-butyl amine salt], the pEC50 was above 9.00. The value for `CC(C)Oc1ccc(-c2nc(-c3ccc(CN4CCC(C)(C(=O)O)CC4)cc3)no2)cc1Cl` [Example 44, 1-{4-[5-(3-Chloro-4-isopropoxy-phenyl)-[1,2,4]-oxadiazol-3-yl]-benzyl}-4-methyl-piperidine-4-carboxylic acid tert-butyl amine salt] was above 8.00. With `CC1(C(=O)O)CCN(Cc2ccc(-c3noc(-c4ccc(C(C)(C)C)c(Cl)c4)n3)cc2)CC1` [Example 45, 1-{4-[5-(4-tert-Butyl-3-chloro-phenyl)-[1,2,4]-oxadiazol-3-yl]-benzyl}-4-methyl-piperidine-4-carboxylic acid tert-butyl amine salt], the pEC50 was above 8.00. Consider `CCCc1ccc(-c2nc(-c3ccc(CN4CCC(C)(C(=O)O)CC4)cc3)no2)cc1Cl` [Example 46, 1-{4-[5-(3-Chloro-4-propyl-phenyl)-[1,2,4]-oxadiazol-3-yl]-benzyl}-4-methyl-piperidine-4-carboxylic acid tert-butyl amine salt], for which the pEC50 is above 9.00. The result for `COCCOCC1(C(=O)O)CCN(Cc2ccc(-c3noc(-c4ccc(OC(C)C)c(Cl)c4)n3)cc2)CC1` [Example 47, 1-{4-[5-(3-Chloro-4-isopropoxy-phenyl)-[1,2,4]-oxadiazol-3-yl]-benzyl}-4-(2-methoxy-ethoxymethyl)-piperidine-4-carboxylic acid tert-butyl amine salt] reads above 9.00.

As to `CCC1(C(=O)O)CCN(Cc2ccc(-c3noc(-c4ccc(OC(C)C)c(Cl)c4)n3)cc2)CC1` [Example 48, 1-{4-[5-(3-Chloro-4-isopropoxy-phenyl)-[1,2,4]-oxadiazol-3-yl]-benzyl}-4-ethyl-piperidine-4-carboxylic acid tert-butyl amine salt], the pEC50 was above 8.00.

`C=CCC1(C(=O)O)CCN(Cc2ccc(-c3noc(-c4ccc(OC(C)C)c(Cl)c4)n3)cc2)CC1` [Example 49, 4-Allyl-1-{4-[5-(3-chloro-4-isopropoxy-phenyl)-[1,2,4]-oxadiazol-3-yl]-benzyl}-piperidine-4-carboxylic acid tert-butyl amine salt]: the pEC50 was above 9.00. The value for `O=C(O)C1(Cc2ccccn2)CCN(Cc2ccc(-c3noc(-c4ccc(-c5ccccc5)c(Cl)c4)n3)cc2)CC1` [Example 50, 1-{4-[5-(2-Chloro-biphenyl-4-yl)-[1,2,4]-oxadiazol-3-yl]-benzyl}-4-pyridin-2-ylmethyl-piperidine-4-carboxylic acid tert-butyl amine salt] was above 9.00; that for `COc1ccc(CC2(C(=O)O)CCN(Cc3ccc(-c4noc(-c5ccc(-c6ccccc6)c(Cl)c5)n4)cc3)CC2)cc1` [Example 51, 1-{4-[5-(2-Chloro-biphenyl-4-yl)-[1,2,4]-oxadiazol-3-yl]-benzyl}-4-(4-methoxy-benzyl)-piperidine-4-carboxylic acid tert-butyl amine salt] was above 9.00; that for `O=C(O)C1(Cc2ccc(F)cc2)CCN(Cc2ccc(-c3noc(-c4ccc(-c5ccccc5)c(Cl)c4)n3)cc2)CC1` [Example 52, 1-{4-[5-(2-Chloro-biphenyl-4-yl)-[1,2,4]-oxadiazol-3-yl]-benzyl}-4-(4-fluoro-benzyl)-piperidine-4-carboxylic acid tert-butyl amine salt] was above 9.00. The result for `COc1ccc(CC2(C(=O)O)CCN(Cc3ccc(-c4noc(-c5ccc(C6CCCCC6)c(Cl)c5)n4)cc3)CC2)cc1` [Example 53, 1-{4-[5-(3-Chloro-4-cyclohexylphenyl)-[1,2,4]-oxadiazol-3-yl]-benzyl}-4-(4-methoxy-benzyl)-piperidine-4-carboxylic acid tert-butyl amine salt] reads above 9.00.
